Values of other authors, collected in paper PMC9410468 (Marine Drugs, 2022).

Test system: rats
Details: rat, in vivo; cited from earlier work
Description: In the mammalian brain, the medial habenula (MHB) expresses high nAChR levels. Recently, α3-containing nAChRs present in the medial habenula have attracted substantial attention because of their potential role in influencing nicotine addiction. In addition, recent studies have shown that the gene polymorphism of the α3 and β4 subunits in vivo are related to nicotine addiction and drug abuse. The α3β4 nAChR subtype is mainly located in the MHB, […] (IPN), and fasciculus retroflexus (FR) of the rat brain. In addition, it is also expres ...

## AT-1001
  effect on nicotine self-administration (in words): reduce nicotine self-administration in rats
